From patent publication US11470846B2, “Herbicidal pyridino-/pyrimidino-thiazoles” (SYNGENTA PARTICIPATIONS AG, priority 2014, dated 2022)

Experiments:
Format in all cases: in vivo
[1] = tested on: Alopecurus myosuroides (ALOMY); experiment: Pre-emergence herbicidal activity; conditions: pre-emergence application, 1000 g/Ha, evaluated after 13 days, scale 0-5
Description: (§1) B1 Pre-Emergence Herbicidal Activity
(§2) Seeds of a variety of test species were sown in standard soil in pots: Triticum aestivium (TRZAW), Oryza sativa (ORYSA), Avena fatua (AVEFA), Alopecurus myosuroides (ALOMY), Echinochloa crus-galli (ECHCG), Lolium perenne (LOLPE), Zea Mays (ZEAMX), Abutilon theophrasti (ABUTH), Amaranthus retroflexus (AMARE) and Setaria faberi (SETFA). After cultivation for one day (pre-emergence) under controlled conditions in a glasshouse (at 24/16° C., day/night; 14 hours light; 65% humidity), the plants were sprayed with an aqueous spray solution derived from the formulation of the technical active ingredient in acetone/water (50:50) solution containing 0.5% Tween 20 (polyoxyethelyene sorbitan monolaurate, CAS RN 9005-64-5). The test plants were then grown in a glasshouse under controlled conditions (at 24/16° C., day/night; 14 hours light; 65% humidity) and watered twice daily. After 13 days, the test was evaluated (5=total damage to plant; 0=no damage to plant).

[2] = tested on: Avena fatua (AVEFA); experiment: Pre-emergence herbicidal activity; conditions: pre-emergence application, 1000 g/Ha, evaluated after 13 days, scale 0-5
Description: as §1, §2

[3] = tested on: Echinochloa crus-galli (ECHCG); experiment: Pre-emergence herbicidal activity; conditions: pre-emergence application, 1000 g/Ha, evaluated after 13 days, scale 0-5; Table 5
Description: as §1, §2

[4] = tested on: Lolium perenne (LOLPE); experiment: Pre-emergence herbicidal activity; conditions: pre-emergence application, 1000 g/Ha, evaluated after 13 days, scale 0-5; Table 5
Description: as §1, §2

[5] = tested on: Oryza sativa (ORYSA); experiment: Pre-emergence herbicidal activity; conditions: pre-emergence application, 1000 g/Ha, evaluated after 13 days, scale 0-5
Description: as §1, §2

[6] = tested on: Triticum aestivium (TRZAW); experiment: Pre-emergence herbicidal activity; conditions: pre-emergence application, 1000 g/Ha, evaluated after 13 days, scale 0-5
Description: as §1, §2

[7] = tested on: Alopecurus myosuroides (ALOMY); experiment: Post-emergence herbicidal activity; conditions: post-emergence application, 1000 g/Ha, evaluated after 13 days, scale 0-5
Description: (§3) B2 Post-Emergence Herbicidal Activity
(§4) Seeds of a variety of test species were sown in standard soil in pots: Triticum aestivium (TRZAW), Oryza sativa (ORYSA), Avena fatua (AVEFA), Alopecurus myosuroides (ALOMY), Echinochloa crus-galli (ECHCG), Lolium perenne (LOLPE), Zea Mays (ZEAMX), Abutilon theophrasti (ABUTH), Amaranthus retroflexus (AMARE) and Setaria faberi (SETFA). After 8 days cultivation (post-emergence) under controlled conditions in a glasshouse (at 24/16° C., day/night; 14 hours light; 65% humidity), the plants were sprayed with an aqueous spray solution derived from the formulation of the technical active ingredient in acetone/water (50:50) solution containing 0.5% Tween 20 (polyoxyethelyene sorbitan monolaurate, CAS RN 9005-64-5). The test plants were then grown in a glasshouse under controlled conditions (at 24/16° C., day/night; 14 hours light; 65% humidity) and watered twice daily. After 13 days, the test was evaluated (5=total damage to plant; 0=no damage to plant).

[8] = tested on: Avena fatua (AVEFA); experiment: Post-emergence herbicidal activity; conditions: post-emergence application, 1000 g/Ha, evaluated after 13 days, scale 0-5
Description: as §3, §4

[9] = tested on: Echinochloa crus-galli (ECHCG); experiment: Post-emergence herbicidal activity; conditions: post-emergence application, 1000 g/Ha, evaluated after 13 days, scale 0-5; Table 7
Description: as §3, §4

[10] = tested on: Lolium perenne (LOLPE); experiment: Post-emergence herbicidal activity; conditions: post-emergence application, 1000 g/Ha, evaluated after 13 days, scale 0-5; Table 7
Description: as §3, §4

[11] = tested on: Oryza sativa (ORYSA); experiment: Post-emergence herbicidal activity; conditions: post-emergence application, 1000 g/Ha, evaluated after 13 days, scale 0-5
Description: as §3, §4

[12] = tested on: Triticum aestivium (TRZAW); experiment: Post-emergence herbicidal activity; conditions: post-emergence application, 1000 g/Ha, evaluated after 13 days, scale 0-5
Description: as §3, §4

SMILES | Control of weed species, ALOMY (damage score) [1] | Control of weed species, AVEFA (damage score) [2] | Control of weed species, ECHCG (damage score) [3] | Control of weed species, LOLPE (damage score) [4] | Control of weed species, ORYSA (damage score) [5] | Control of weed species, TRZAW (damage score) [6] | Control of weed species, ALOMY (damage score) [7] | Control of weed species, AVEFA (damage score) [8] | Control of weed species, ECHCG (damage score) [9] | Control of weed species, LOLPE (damage score) [10] | Control of weed species, ORYSA (damage score) [11] | Control of weed species, TRZAW (damage score) [12]
Cc1nc(-c2cccnc2)sc1N(C)C(=O)SC(C)(C)C [Compound A22, S-tert-butyl N-methyl-N-[4-methyl-2-(3-pyridyl)thiazol-5-yl]carbamothioate] | 0 | 0 | 0 | 0 | 0 | 0 | 0 | 2 | 2 | 2 | 0 | 0
Cc1nc(-c2cncc(O)c2)sc1N(C)C(=O)OC(C)(C)C [Compound A15] | 0 | 0 | 0 | 0 | 0 | 0 | 0 | 2 | 1 | 1 | 0 | 1
CN(C(=O)OC(C)(C)C)c1sc(-c2cncc(F)c2)nc1C(F)(F)F [Compound A24] | 2 | 4 | 4 | 3 | 0 | 1 | 0 | 4 | 5 | 4 | 2 | 1
CN(C(=O)OC(C)(C)C)c1sc(-c2cccnc2)nc1Cl [Compound A29] | 1 | 2 | 3 | 2 | 2 | 3 | 1 | 4 | 5 | 4 | 1 | 1
CN(C(=O)OC(C)(C)C)c1sc(-c2cccnc2)nc1C(F)(F)F [Compound A25] | 1 | 4 | 4 | 3 | 1 | 0 | 1 | 4 | 5 | 4 | 1 | 2
CN(C(=O)OC(C)(C)C)c1sc(-c2cncc(Cl)c2)nc1C(F)(F)F [Compound A27] | 0 | 2 | 2 | 2 | 0 | 0 | 1 | 4 | 5 | 3 | 1 | 2
CN(C(=O)OC(C)(C)C)c1sc(-c2cncc(F)c2)nc1I [Compound A52] | 0 | 3 | 2 | 3 | 1 | 0 | 1 | 4 | 4 | 3 | 0 | 1
Cc1nc(-c2cncc(C(N)=O)c2)sc1N(C)C(=O)OC(C)(C)C [Compound A8] | 0 | 0 | 0 | 0 | 0 | 0 | 1 | 2 | 3 | 0 | 1 | 2
Cc1nc(-c2cccnc2)sc1N(C)C(=O)Oc1ccc([N+](=O)[O-])cc1 [Compound A61, (4-nitrophenyl) N-methyl-N-[4-methyl-2-(3-pyridyl)thiazol-5-yl]carbamate] | – | – | – | – | – | – | 0 | 2 | 1 | 1 | 0 | 1
Cc1nc(-c2cncc(F)c2)sc1NC(=O)OC(C)(C)C [Compound A35, tert-butyl N-[2-(5-fluoro-3-pyridyl)-4-methyl-thiazol-5-yl]carbamate] | – | – | – | – | – | – | 0 | 1 | 2 | 0 | 0 | 1
